Test results taken from article PMC6535718 (Journal of the American Chemical Society, 2019).
Read-outs that look alike come from different tables or passages of the source.

Assays:
P. aeruginosa = conditions: cited from earlier work
P. aeruginosa PAO1 = assay: Effect of analogs on the potency of fluoroquinolone antibiotics, strain PAO1; format: cell-based, Pseudomonas aeruginosa; conditions: PAO1, ciprofloxacin 0.25 μg/mL, 18 h, M63 + 4 μM Fe
[1] = fluoroquinolone at the reported MIC, Figure 9 legend

Compound | reported MIC (P. aeruginosa; [1]) [µg/mL] | % survival relative to untreated control, ciprofloxacin only (P. aeruginosa PAO1) | reported MIC (P. aeruginosa) [µg/mL]
CCn1cc(C(=O)O)c(=O)c2cc(F)c(N3CCNCC3)cc21 [norfloxacin] | 0.9 |  | 
C[C@H]1COc2c(N3CCN(C)CC3)c(F)cc3c(=O)c(C(=O)O)cn1c23 [levofloxacin] | 0.5 |  | 
O=C(O)c1cn(C2CC2)c2cc(N3CCNCC3)c(F)cc2c1=O [ciprofloxacin] |  | approximately 10% | 0.25
